This passage reports inhibition and IC50 results from patent publication US20260234157A1, “COMPOUND AND METHOD FOR TARGETED DEGRADATION OF ANDROGEN RECEPTOR” (Gan & Lee Pharmaceuticals Co., Ltd., priority 2023, published 2026).

Numbering of substitutions follows the chain as printed.

In one experiment the target is T1, AR protein (Homo sapiens, UniProt P10275, T878A).
T1 construct: degradation activity of the compounds disclosed in the present disclosure on AR protein in LNCaP cells; host or cells: LNCaP FGC
T1 sequence (P10275 1-920 T878A): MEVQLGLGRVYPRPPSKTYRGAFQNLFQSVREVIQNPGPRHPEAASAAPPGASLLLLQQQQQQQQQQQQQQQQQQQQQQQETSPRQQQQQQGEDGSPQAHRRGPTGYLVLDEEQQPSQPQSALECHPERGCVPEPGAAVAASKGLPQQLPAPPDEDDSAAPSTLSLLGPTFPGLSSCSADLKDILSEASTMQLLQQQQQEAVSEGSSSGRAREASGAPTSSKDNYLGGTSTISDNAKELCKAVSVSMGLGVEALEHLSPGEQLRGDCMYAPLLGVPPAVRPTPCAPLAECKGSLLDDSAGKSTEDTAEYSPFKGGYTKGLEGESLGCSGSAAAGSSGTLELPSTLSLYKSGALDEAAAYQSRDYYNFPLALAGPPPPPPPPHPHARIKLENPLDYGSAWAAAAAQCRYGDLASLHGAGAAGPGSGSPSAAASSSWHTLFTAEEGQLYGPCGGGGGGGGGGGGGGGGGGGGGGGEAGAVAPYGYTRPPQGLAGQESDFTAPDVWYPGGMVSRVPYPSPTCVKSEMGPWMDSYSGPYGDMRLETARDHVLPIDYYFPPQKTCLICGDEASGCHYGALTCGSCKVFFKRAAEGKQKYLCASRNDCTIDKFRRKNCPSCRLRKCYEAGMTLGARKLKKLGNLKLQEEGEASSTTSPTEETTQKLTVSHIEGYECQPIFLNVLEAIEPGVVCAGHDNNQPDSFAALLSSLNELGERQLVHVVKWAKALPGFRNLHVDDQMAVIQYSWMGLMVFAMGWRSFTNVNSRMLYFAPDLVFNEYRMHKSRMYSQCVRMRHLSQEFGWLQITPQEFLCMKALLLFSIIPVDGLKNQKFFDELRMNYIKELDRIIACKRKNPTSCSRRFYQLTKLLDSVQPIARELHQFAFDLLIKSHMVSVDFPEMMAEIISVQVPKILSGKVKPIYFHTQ
Briefly: Degradation of AR protein in LNCaP cells (Western blot). Type of experiment: cell-based. The note with it: LNCaP cells, compound 10 nM, 8 hours, Western blot grayscale, GAPDH internal reference; read-out: Degradation rates of the AR protein in LNCaP cells, 10 nM (%). The method in brief: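 Percent AR degradation was derived from GAPDH-normalised Western blot band intensities (infrared detection) in LNCaP lysates.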
`N#Cc1ccc(O[C@H]2CC[C@H](NC(=O)c3ccc(N4CC(CN5CCC6(CCc7cc8c(cc7O6)C(=O)N(C6CCC(=O)NC6=O)C8=O)CC5)C4)nn3)CC2)cc1Cl` (stereo partly drawn) [Compound 20]: the inhibition at 0.01 µM was 13%.

Consider `N#Cc1ccc(O[C@H]2CC[C@H](NC(=O)c3ccc(N4CC[C@H](CN5CCC6(CCc7cc8c(cc7O6)C(=O)N(C6CCC(=O)NC6=O)C8=O)CC5)C4)nn3)CC2)cc1Cl` (stereo partly drawn) [Compound 22], for which the inhibition at 0.01 µM was 71%.

The same experiment, now with this note: LNCaP cells, compound 100 nM, 8 hours, Western blot grayscale, GAPDH internal reference; read-out: Degradation rates of the AR protein in LNCaP cells, 100 nM (%).
On to `N#Cc1ccc(O[C@H]2CC[C@H](NC(=O)c3ccc(N4CC(CN5CCC6(CCc7cc8c(cc7O6)C(=O)N(C6CCC(=O)NC6=O)C8=O)CC5)C4)nn3)CC2)cc1Cl` (stereo partly drawn) [Compound 20], for which the inhibition at 0.1 µM was found to be 48%.

With `N#Cc1ccc(O[C@H]2CC[C@H](NC(=O)c3ccc(N4CC[C@H](CN5CCC6(CCc7cc8c(cc7O6)C(=O)N(C6CCC(=O)NC6=O)C8=O)CC5)C4)nn3)CC2)cc1Cl` (stereo partly drawn) [Compound 22], the inhibition at 0.1 µM stood at 84%.

Still in this experiment, the particulars now being: LNCaP, 8 h, read-out: Degradation rates of the AR protein in LNCaP cells, 10 nM (%).
For `N#Cc1ccc(O[C@H]2CC[C@H](NC(=O)c3ccc(N4CC(N5CC6(CCc7cc8c(cc7O6)C(=O)N(C6CCC(=O)NC6=O)C8=O)C5)C4)nn3)CC2)cc1Cl` (stereo partly drawn) [Compound 5], the inhibition at 0.01 µM came out at 51%.

The same experiment, now with this note: LNCaP, 8 h, read-out: Degradation rates of the AR protein in LNCaP cells, 100 nM (%).
As to `N#Cc1ccc(O[C@H]2CC[C@H](NC(=O)c3ccc(N4CC(N5CC6(CCc7cc8c(cc7O6)C(=O)N(C6CCC(=O)NC6=O)C8=O)C5)C4)nn3)CC2)cc1Cl` (stereo partly drawn) [Compound 5], the inhibition at 0.1 µM was determined as 35%.

A further experiment has as its target T2, AR protein (Homo sapiens, UniProt P10275).
T2 construct: degradation activity of the compounds disclosed in the present disclosure on AR protein in VCaP cells; host or cells: VCaP
T2 sequence (P10275 1-920): T1 sequence (P10275 1-920 T878A) with A878T
Put plainly: Degradation of AR protein in VCaP cells (Western blot). It counts as cell-based. The note with it: compound at 10 nM, 8 hours, read-out: Degradation rate of the AR protein in VCaP cells, 10 nM (%). A digest of the protocol: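 Western blot readout: AR band grayscale normalised to GAPDH, used to derive degradation rate. Lysates came from VCaP cells exposed to compound for 8 h, with solvent controls run in parallel.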
For the molecule `N#Cc1ccc(O[C@H]2CC[C@H](NC(=O)c3ccc(N4CC(N5CC6(CCc7cc8c(cc7O6)C(=O)N(C6CCC(=O)NC6=O)C8=O)C5)C4)nn3)CC2)cc1Cl` (stereo partly drawn) [Compound 5], the inhibition at 0.01 µM came out at 41%.

On to `N#Cc1ccc(O[C@H]2CC[C@H](NC(=O)c3ccc(N4CC(CN5CCC6(CCc7cc8c(cc7O6)C(=O)N(C6CCC(=O)NC6=O)C8=O)CC5)C4)nn3)CC2)cc1Cl` (stereo partly drawn) [Compound 20], for which the inhibition at 0.01 µM was determined as 41%.

Turning to `N#Cc1ccc(O[C@H]2CC[C@H](NC(=O)c3ccc(N4CC[C@H](CN5CCC6(CCc7cc8c(cc7O6)C(=O)N(C6CCC(=O)NC6=O)C8=O)CC5)C4)nn3)CC2)cc1Cl` (stereo partly drawn) [Compound 22], the inhibition at 0.01 µM came out at 58%.

Staying with this experiment, now noted: compound at 100 nM, 8 hours, read-out: Degradation rate of the AR protein in VCaP cells, 100 nM (%).
On to `N#Cc1ccc(O[C@H]2CC[C@H](NC(=O)c3ccc(N4CC(N5CC6(CCc7cc8c(cc7O6)C(=O)N(C6CCC(=O)NC6=O)C8=O)C5)C4)nn3)CC2)cc1Cl` (stereo partly drawn) [Compound 5], for which the inhibition at 0.1 µM was 51%.

For `N#Cc1ccc(O[C@H]2CC[C@H](NC(=O)c3ccc(N4CC(CN5CCC6(CCc7cc8c(cc7O6)C(=O)N(C6CCC(=O)NC6=O)C8=O)CC5)C4)nn3)CC2)cc1Cl` (stereo partly drawn) [Compound 20], the inhibition at 0.1 µM stood at 54%.

`N#Cc1ccc(O[C@H]2CC[C@H](NC(=O)c3ccc(N4CC[C@H](CN5CCC6(CCc7cc8c(cc7O6)C(=O)N(C6CCC(=O)NC6=O)C8=O)CC5)C4)nn3)CC2)cc1Cl` (stereo partly drawn) [Compound 22]: the inhibition at 0.1 µM came to 64%.

The test system of another experiment is LNCaP FGC cells. Briefly: Inhibition of proliferation of LNCaP cells (WST-8). Type of experiment: cell-based. The following applies: Homo sapiens, LNCaP, 96 h, LNCaP FGC cells, 96 hours, WST-8 absorbance at 450 nm; read-out: IC50 for inhibiting the proliferation of LNCaP cells. As for the experimental part:
The cells were cultured in a cell culture incubator with 5% CO2 at 37° C. overnight. […] On the sixth day, 96 well plates were taken out, and 20 μL of WST-8 (Beytime, C0040) reagent was added to each well.
For `N#Cc1ccc(O[C@H]2CC[C@H](NC(=O)c3ccc(N4CC(CN5CCC6(CCc7cc8c(cc7O6)C(=O)N(C6CCC(=O)NC6=O)C8=O)CC5)C4)nn3)CC2)cc1Cl` (stereo partly drawn) [Compound 20], the IC50 worked out at 1000 nM.

For `N#Cc1ccc(O[C@H]2CC[C@H](NC(=O)c3ccc(N4CC[C@H](CN5CCC6(CCc7cc8c(cc7O6)C(=O)N(C6CCC(=O)NC6=O)C8=O)CC5)C4)nn3)CC2)cc1Cl` (stereo partly drawn) [Compound 22], the IC50 was determined as 600 nM.

Staying with this experiment, now noted: Homo sapiens, LNCaP, 96 h, read-out: IC50 for inhibiting the proliferation of LNCaP cells, LNCaP FGC cells, 96 hours, WST-8 absorbance at 450 nm.
Turning to `N#Cc1ccc(O[C@H]2CC[C@H](NC(=O)c3ccc(N4CC(N5CC6(CCc7cc8c(cc7O6)C(=O)N(C6CCC(=O)NC6=O)C8=O)C5)C4)nn3)CC2)cc1Cl` (stereo partly drawn) [Compound 5], the IC50 is 710 nM.

The next experiment has as its system VCaP cells. Put plainly: Inhibition of proliferation of VCaP cells (WST-8). It counts as cell-based. The following applies: Homo sapiens, VCaP, 168 h, read-out: IC50 for inhibiting the proliferation of VCaP cells. On the procedure:
The inhibitory activity of the compounds disclosed in the present disclosure on the proliferation of VCaP cells
On the first day of the experiment, […] were inoculated in 96 well plates at a density of 15000 cells per well using DMEM medium containing 10% fetal bovine serum, with 100 μL of cell suspension per well. The cells were cultured in a cell culture incubator with 5% CO2 at 37° C. overnight. […] On the ninth day, 96 well plates were taken out, and 20 μL of WST-8 (Beytime, C0040) reagent was added to each well.
Turning to `N#Cc1ccc(O[C@H]2CC[C@H](NC(=O)c3ccc(N4CC(N5CC6(CCc7cc8c(cc7O6)C(=O)N(C6CCC(=O)NC6=O)C8=O)C5)C4)nn3)CC2)cc1Cl` (stereo partly drawn) [Compound 5], the IC50 stood at 4500 nM.

Staying with this experiment, now noted: Homo sapiens; VCaP cells, 168 hours, WST-8 absorbance at 450 nm; read-out: IC50 for inhibiting the proliferation of VCaP cells.
Consider `N#Cc1ccc(O[C@H]2CC[C@H](NC(=O)c3ccc(N4CC(CN5CCC6(CCc7cc8c(cc7O6)C(=O)N(C6CCC(=O)NC6=O)C8=O)CC5)C4)nn3)CC2)cc1Cl` (stereo partly drawn) [Compound 20], for which the IC50 worked out at 170 nM.

For `N#Cc1ccc(O[C@H]2CC[C@H](NC(=O)c3ccc(N4CC[C@H](CN5CCC6(CCc7cc8c(cc7O6)C(=O)N(C6CCC(=O)NC6=O)C8=O)CC5)C4)nn3)CC2)cc1Cl` (stereo partly drawn) [Compound 22], the IC50 stood at 230 nM.
